# Assay results as given in ChEMBL document CHEMBL3112512, “Microwave induced three-component synthesis and antimycobacterial activity of benzopyrazolo[3,4-b]quinolindiones” (2014).
# Legend:
# Assay type in all cases: functional
# [1] = test system: Mycobacterium tuberculosis; test: Antimycobacterial activity against isoniazid and rifampicin-resistant Mycobacterium tuberculosis UT544 clinical isolate by MTT assay
# [2] = test system: Mycobacterium tuberculosis; test: Antimycobacterial activity against isoniazid and rifampicin-resistant Mycobacterium tuberculosis MTB2556 clinical isolate by MTT assay
# [3] = test system: Mycobacterium tuberculosis; test: Antimycobacterial activity against isoniazid and rifampicin-resistant Mycobacterium tuberculosis MTB985 clinical isolate by MTT assay
# [4] = test system: Mycobacterium tuberculosis; test: Antimycobacterial activity against isoniazid-resistant Mycobacterium tuberculosis H37Rv ATCC 35822 by MTT assay
# [5] = test system: Mycobacterium tuberculosis; test: Antimycobacterial activity against isoniazid and rifampicin-resistant Mycobacterium tuberculosis MTB4000 clinical isolate by MTT assay
# [6] = test system: Mycobacterium tuberculosis; test: Antimycobacterial activity against rifampicin-resistant Mycobacterium tuberculosis H37Rv ATCC 35838 by MTT assay
# [7] = test system: Mycobacterium tuberculosis; test: Antimycobacterial activity against isoniazid and rifampicin-resistant Mycobacterium tuberculosis MTB411 clinical isolate by MTT assay
# [8] = test system: Mycobacterium tuberculosis; test: Antimycobacterial activity against ethambutol-resistant Mycobacterium tuberculosis H37Rv ATCC 35837 by MTT assay
# [9] = test system: Mycobacterium tuberculosis; test: Antimycobacterial activity against streptomycin-resistant Mycobacterium tuberculosis H37Rv ATCC 35820 by MTT assay
Compound,MIC [1],MIC [2],MIC [3],MIC [4],MIC [5],MIC [6],MIC [7],MIC [8],MIC [9]
Cc1nn(-c2ccccc2)c2nc3c(c(-c4ccccc4)c12)C(=O)C(=O)c1ccccc1-3,≤ 2 µg/mL,≤ 2 µg/mL,≤ 2 µg/mL,≤ 2 µg/mL,≤ 2 µg/mL,≤ 2 µg/mL,4 µg/mL,≤ 2 µg/mL,≤ 2 µg/mL
Cc1ccc(-c2c3c(nc4c2c(C)nn4-c2ccccc2)-c2ccccc2C(=O)C3=O)cc1,≤ 2 µg/mL,≤ 2 µg/mL,≤ 2 µg/mL,≤ 2 µg/mL,≤ 2 µg/mL,4 µg/mL,4 µg/mL,4 µg/mL,≤ 2 µg/mL
COc1cc(-c2c3c(nc4c2c(C)nn4-c2ccccc2)-c2ccccc2C(=O)C3=O)cc(OC)c1OC,> 32 µg/mL,> 32 µg/mL,> 32 µg/mL,> 32 µg/mL,> 32 µg/mL,> 32 µg/mL,> 32 µg/mL,> 32 µg/mL,> 32 µg/mL
Cc1nn(-c2ccccc2)c2nc3c(c(-c4ccc(Cl)cc4)c12)C(=O)C(=O)c1ccccc1-3,> 32 µg/mL,> 32 µg/mL,> 32 µg/mL,> 32 µg/mL,> 32 µg/mL,> 32 µg/mL,> 32 µg/mL,> 32 µg/mL,> 32 µg/mL
Cc1nn(-c2ccccc2)c2nc3c(c(-c4ccc(F)cc4)c12)C(=O)C(=O)c1ccccc1-3,≤ 2 µg/mL,≤ 2 µg/mL,≤ 2 µg/mL,≤ 2 µg/mL,≤ 2 µg/mL,4 µg/mL,4 µg/mL,4 µg/mL,≤ 2 µg/mL
O=C1C(=O)c2ccccc2C2=C1C(c1ccccc1)c1c(-c3ccccc3)n[nH]c1N2 (stereo not given),> 32 µg/mL,> 32 µg/mL,> 32 µg/mL,> 32 µg/mL,> 32 µg/mL,> 32 µg/mL,> 32 µg/mL,> 32 µg/mL,> 32 µg/mL
Cc1ccc(C2C3=C(Nc4[nH]nc(-c5ccccc5)c42)c2ccccc2C(=O)C3=O)cc1 (stereo not given),> 32 µg/mL,> 32 µg/mL,> 32 µg/mL,> 32 µg/mL,> 32 µg/mL,> 32 µg/mL,> 32 µg/mL,> 32 µg/mL,> 32 µg/mL
COc1ccc(C2C3=C(Nc4[nH]nc(-c5ccccc5)c42)c2ccccc2C(=O)C3=O)cc1 (stereo not given),> 32 µg/mL,> 32 µg/mL,> 32 µg/mL,> 32 µg/mL,> 32 µg/mL,> 32 µg/mL,> 32 µg/mL,> 32 µg/mL,> 32 µg/mL
Cc1ccc(-c2n[nH]c3c2C(c2ccccc2)C2=C(N3)c3ccccc3C(=O)C2=O)cc1 (stereo not given),16 µg/mL,16 µg/mL,16 µg/mL,16 µg/mL,16 µg/mL,4 µg/mL,16 µg/mL,16 µg/mL,16 µg/mL
O=C1C(=O)c2ccccc2C2=C1C(c1ccccc1)c1c(-c3ccc(Cl)cc3)n[nH]c1N2 (stereo not given),> 32 µg/mL,> 32 µg/mL,> 32 µg/mL,> 32 µg/mL,> 32 µg/mL,> 32 µg/mL,> 32 µg/mL,> 32 µg/mL,> 32 µg/mL
O=C1C(=O)c2ccccc2C2=C1C(c1ccccc1)c1c(-c3ccc([N+](=O)[O-])cc3)n[nH]c1N2 (stereo not given),8 µg/mL,8 µg/mL,8 µg/mL,16 µg/mL,16 µg/mL,16 µg/mL,16 µg/mL,> 32 µg/mL,16 µg/mL
Cc1ccc(-c2n[nH]c3nc4c(c(-c5ccc([N+](=O)[O-])cc5)c23)C(=O)C(=O)c2ccccc2-4)cc1,> 32 µg/mL,> 32 µg/mL,> 32 µg/mL,> 32 µg/mL,> 32 µg/mL,> 32 µg/mL,> 32 µg/mL,> 32 µg/mL,> 32 µg/mL
COc1ccc(-c2c3c(nc4[nH]nc(-c5ccc(Cl)cc5)c24)-c2ccccc2C(=O)C3=O)cc1,8 µg/mL,8 µg/mL,16 µg/mL,> 32 µg/mL,16 µg/mL,16 µg/mL,16 µg/mL,> 32 µg/mL,16 µg/mL
NNC(=O)c1ccncc1 [ISONIAZID],> 0.5 µg/mL,> 0.5 µg/mL,> 0.5 µg/mL,> 0.5 µg/mL,> 0.5 µg/mL,0.25 µg/mL,> 0.5 µg/mL,0.25 µg/mL,0.25 µg/mL
CO[C@H]1/C=C/O[C@@]2(C)Oc3c(C)c(O)c4c(O)c(c(/C=N/N5CCN(C)CC5)c(O)c4c3C2=O)NC(=O)/C(C)=C\C=C\[C@H](C)[C@H](O)[C@@H](C)[C@@H](O)[C@@H](C)[C@H](OC(C)=O)[C@@H]1C [RIFAMPIN],> 0.5 µg/mL,> 0.5 µg/mL,> 0.5 µg/mL,0.125 µg/mL,> 0.5 µg/mL,> 0.5 µg/mL,> 0.5 µg/mL,0.125 µg/mL,0.125 µg/mL
